Dwell time data for 1 substance are collected here from patent US20100099198A1 (priority 2008, published 2010).

This assay deals with (WT)7 αHL protein pore (Staphylococcus aureus, UniProt P09616). Particulars: pH 7.5.
Chain of (WT)7 αHL protein pore (P09616 27-319 limits assumed): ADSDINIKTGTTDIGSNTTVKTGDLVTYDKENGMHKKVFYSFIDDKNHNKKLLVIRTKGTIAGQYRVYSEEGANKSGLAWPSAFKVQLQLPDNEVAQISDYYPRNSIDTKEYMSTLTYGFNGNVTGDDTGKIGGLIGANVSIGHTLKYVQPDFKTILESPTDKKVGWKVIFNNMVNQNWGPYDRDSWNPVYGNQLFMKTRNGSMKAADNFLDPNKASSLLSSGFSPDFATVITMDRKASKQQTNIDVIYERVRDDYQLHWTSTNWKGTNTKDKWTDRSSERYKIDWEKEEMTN

With Y-Y-Y-Y-Y-Y [Y6], the dwell time came to 1.2 ms.
